Data taken from US9131685B2, “Compositions comprising a strigolactone compound and a chito-oligosaccharide compound for enhanced plant growth and yield” (Bayer CropScience AG, priority 2009, dated 2015).

How the values were obtained:
soybean = experiment: Greenhouse experiments on soybean (seed treatment, root weight and leaf area); type: in vivo, soybean (variety Cordoba); details: sand/perlite with arbuscular mycorrhizal inoculum, 6 weeks greenhouse, average of 3 replicates of 5 plants
Description: Test is performed in the greenhouse. 5 soybean seeds per treatment of the variety Cordoba were sown in 500 ml rose pots (7×7×18 cm) containing a mix of sand and perlite (1:1). 3 replicates were made. The active ingredient was solved in a solvent and seed treatment was performed with a lab equipment.
To inoculate with arbuscular mycorrhizal fungi, 10 g inoculum (Vaminoc; MicroBio Ltd.) were mixed with 1 l of the sand-perlite mixture.
Seeds were covered by 3 cm of LECA (light expanded clay aggregate). Pots were incubated in the greenhouse for 6 weeks at 22° C./15° C. (day/night) and 80% relative humidity. Assessment consisted of root weight and leaf area.
average of 3 replicates of 5 plants

wheat seeds = experiment: Germination test on wheat (agar plates, climate chamber); type: in vivo, wheat (variety Tuareg); details: seed treatment, 10° C. in darkness, after 2 days, average of 5 replicates of 20 seeds
Description: For wheat experiments 20 wheat seeds per treatment of the variety Tuareg were sown on agar plates (1.4% agar). 5 replicates were made. The active ingredient was solved in a solvent and seed treatment was performed with a lab equipment. Plates were incubated at 10° C. in darkness. After 2 days the germination rate and root length were assessed.
(§1) average of 5 replicates of 20 seeds

soybean seeds = experiment: Germination test on soybean (agar plates, climate chamber); type: in vivo, soybean (variety Cordoba); details: seed treatment, 10° C. in darkness, after 4 days, average of 5 replicates of 20 seeds
Description: Test is performed in a climate chamber. 20 soybean seeds per treatment of the variety Cordoba were sown on agar plates (0.8% agar). 5 replicates were made. The active ingredient was solved in a solvent and seed treatment was performed with a lab equipment. Plates were incubated at 10° C. in darkness. After 4 days the germination rate and root length were assessed.
as §1

Winter wheat = experiment: Field trials 2: winter wheat, Germany (Bergisches Land); type: in vivo, Winter wheat (variety Dekan); details: in comparison to the untreated control
Description: b) Field trials 2: Winter wheat: Germany (Bergisches Land):
Seeds of the variety “Dekan” were planted on December with a seed density of 400 seeds/m^2 on a non-fertilized soil. The plot size was 6 m×2.5 m (=15 m^2) and four randomised replicates were used. The application of plant protection products were carried out according to the good agricultural practise. The evaluation of different growth parameters was done during the season.
Dosages Winter Wheat (Bergisches Land):
Base: Insecticide (I): Imidacloprid; Fungicides (F): Fluoxastrobin & Tebuconazole & Prothioconazole.

Compound	Leaf Area (soybean) [cm^2]	Root weight (soybean) [g]	Germination rate (wheat seeds) [%]	Root length (wheat seeds) [cm]	Germination rate (soybean seeds) [%]	Root length (soybean seeds) [cm]	yield in dt/ha, in words (Winter wheat)
CON=C(C(=O)OC)c1ccccc1CON=C(C)c1cccc(C(F)(F)F)c1 [Trifloxystrobin, reference compound]	24.80	18.2					
CC1=CC(O/C=C2/C(=O)OC3c4ccccc4CC23)OC1=O (stereo not shown) [Compound A1]	35.67	11.13	27	3.04	63	5.19	
OC(Cc1ccccc1Cl)(Cn1nc[nH]c1=S)C1(Cl)CC1 (stereo not shown) [Prothioconazole, reference compound]	20.58	16.8					
CCCCCC/C=C\CCCOc1cccc(C(=O)NC2C(O)[C@H](O)C(CO)O[C@H]2O[C@@H]2C(CO)O[C@@H](O[C@@H]3C(CO)O[C@@H](O[C@@H]4C(CO)O[C@@H](O[C@@H]5C(CO[C@@H]6OC(C)[C@@H](O)C(O)C6O)OC(O)C(NC(C)=O)C5O)C(NC(C)=O)C4O)C(NC(C)=O)C3O)C(NC(C)=O)C2O)c1 (stereo partly shown) [Compound B2]			18	2.02	68	5.61	
CCCCCC/C=C\CCCOc1cccc(C(=O)NC2C(O[C@@H]3C(CO)OC(OC4C(CO)O[C@@H](O[C@@H]5C(CO)OC(OC6C(CO)OC(O)C(NC(C)=O)C6O)C(NC(C)=O)C5O)C(NC(C)=O)C4O)C(NC(C)=O)C3O)OC(CO)[C@@H](O)C2O)c1 (stereo partly shown) [Compound B1]	36.82	9.19	8	2.34	58	5.64	increased yield
CCCCCC/C=C\CCCOc1cccc(C(=O)NC2C(O[C@@H]3C(CO)OC(OC4C(CO)O[C@@H](O[C@@H]5C(CO)OC(OC6C(CO[C@@H]7OC(C)C(O)C(O)C7OC)OC(O)C(NC(C)=O)C6O)C(NC(C)=O)C5O)C(NC(C)=O)C4O)C(NC(C)=O)C3O)OC(CO)[C@@H](O)C2O)c1 (stereo partly shown) [Compound B3]			17	2.18	59	5.13	
